In paper PMC10584170, “Machine learning-based phenotypic imaging to characterise the targetable biology of Plasmodium falciparum male gametocytes for the development of transmission-blocking antimalarials” (PLOS Pathogens, 2023):
Like-named read-outs stand apart in the source and are kept apart here.

Legend:
[1] = system: P. falciparum female gametocytes; experiment: P. falciparum Dual Gamete Formation Assay (PfDGFA), female readout (Pfs25-positive female gametes); type: cell-based, Plasmodium falciparum NF54
In short: (§1)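 Two sex-specific readouts come from one well: male exflagellation centres recorded by brightfield video right after activation, and female gametes scored by Cy3-anti-Pfs25 fluorescence after 24 h at 28°C.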

[2] = system: P. falciparum male gametocytes; experiment: P. falciparum Dual Gamete Formation Assay (PfDGFA), male readout (exflagellation); type: cell-based, Plasmodium falciparum NF54; conditions: for Activity: hit = >50% inhibition in male or female readout in at least 3 replicates, 0 = no class assigned
In short: as §1

[3] = 2µM, 24h preincubation with gametocytes prior to induction of gametogenesis, average of replicates
[4] = 2µM, 24h preincubation with gametocytes prior to induction of gametogenesis, replicate R1
[5] = 2µM, 24h preincubation with gametocytes prior to induction of gametogenesis, replicate R3
[6] = 2µM, 24h preincubation with gametocytes prior to induction of gametogenesis, replicate R4
[7] = 2µM, 24h preincubation, number of replicates with >50% inhibition in the female readout
[8] = 2µM, 24h preincubation, number of replicates with >50% inhibition in the male readout
[9] = PfDGFA at 2µM, 24h preincubation with gametocytes, average of replicates
[10] = PfDGFA at 2µM, 24h preincubation with gametocytes, replicate R1
[11] = PfDGFA at 2µM, 24h preincubation with gametocytes, replicate R3
[12] = PfDGFA at 2µM, 24h preincubation with gametocytes, replicate R4
[13] = number of replicates with >50% inhibition in the female readout, 2µM
[14] = number of replicates with >50% inhibition in the male readout, 2µM
[15] = 2µM, 24h preincubation, hits selected on >50% inhibition in the female readout across replicates
[16] = 2µM, 24h preincubation, hits selected on >50% inhibition in the male readout across replicates
[17] = PfDGFA at 2µM, 24h preincubation
[18] = PfDGFA at 2µM, 24h preincubation with gametocytes prior to induction of gametogenesis, replicate R1
[19] = PfDGFA at 2µM, 24h preincubation with gametocytes prior to induction of gametogenesis, replicate R3
[20] = PfDGFA at 2µM, 24h preincubation with gametocytes prior to induction of gametogenesis, replicate R4
[21] = PfDGFA at 2µM, 24h preincubation, average of replicates

Compound | Average inhibition female (%) [1, 3] | % inhibition female (individual replicates) R1 [1, 4] | % inhibition female (individual replicates) R3 [1, 5] | % inhibition female (individual replicates) R4 [1, 6] | Average inhibition male (%) [2, 3] | % inhibition male (individual replicates) R1 [2, 4] | % inhibition male (individual replicates) R3 [2, 5] | % inhibition male (individual replicates) R4 [2, 6] | Average inhibition female (%) [1, 9] | % inhibition female (individual replicates) R1 [1, 10] | % inhibition female (individual replicates) R3 [1, 11] | % inhibition female (individual replicates) R4 [1, 12] | HitlevelF [1, 13] | Average inhibition male (%) [2, 9] | % inhibition male (individual replicates) R1 [2, 10] | % inhibition male (individual replicates) R3 [2, 11] | % inhibition male (individual replicates) R4 [2, 12] | HitlevelM [2, 14] | other results
c1ccc(Oc2ccc(Nc3ccnc4cc(-c5cccc(CNCCN6CCOCC6)c5)ccc34)cc2)cc1 [TCMDC-138474] | 29.1% | 38.4% | 13.4% | 18.2% | 19.3% | 25.4% | -12.1% | 25.6% |  |  |  |  |  |  |  |  |  |  | HitlevelF [1, 7]: 0; HitlevelM [2, 8]: 0
CN1CCN(Cc2cccc(-c3ccc4c(Nc5ccc(Oc6ccccc6)cc5)ccnc4c3)c2)CC1 [TCMDC-138476] | 18.5% | 35.6% | -5.5% | 24.1% | -8.7% | -12.6% | -7.4% | -11.7% |  |  |  |  |  |  |  |  |  |  | HitlevelF [1, 7]: 0; HitlevelM [2, 8]: 0
O=C(Cc1cccc(O)c1)NCC(Cc1ccc(O)cc1)c1ccccc1 (stereo not drawn) [TCMDC-138482] |  |  |  |  |  |  |  |  |  |  |  |  |  |  |  |  |  |  | Selectivity ratio F ([1]; HepG2 Tox50 versus female IC50): 10; inhibition at 2 µM ([1]; Plasmodium falciparum, 2µM, 24h preincubation with gametocytes, average of replicates, read-out: Average inhibition female (%)): 28.1%; inhibition at 2 µM ([1]; Plasmodium falciparum, 2µM, 24h preincubation with gametocytes, replicate R1, read-out: % inhibition female (individual replicates) R1): 32.7%; inhibition at 2 µM ([1]; Plasmodium falciparum, 2µM, 24h preincubation with gametocytes, replicate R2, read-out: % inhibition female (individual replicates) R2): 38.2%; inhibition at 2 µM ([1]; Plasmodium falciparum, 2µM, 24h preincubation with gametocytes, replicate R3, read-out: % inhibition female (individual replicates) R3): 28.5%; inhibition at 2 µM ([1]; Plasmodium falciparum, 2µM, 24h preincubation with gametocytes, replicate R4, read-out: % inhibition female (individual replicates) R4): 13.2%; IC50 ([1]; Plasmodium falciparum, PfDGFA, 24 h incubation with gametocytes before induction, female gamete readout, read-out: Female IC50): > 10 µM; Selectivity Ratio M ([2]; HepG2 Tox50 versus male IC50): 58.17; inhibition at 2 µM ([2]; Plasmodium falciparum, 2µM, 24h preincubation with gametocytes, average of replicates, read-out: Average inhibition male (%)): 97.3%; inhibition at 2 µM ([2]; Plasmodium falciparum, 2µM, 24h preincubation with gametocytes, replicate R1, read-out: % inhibition male (individual replicates) R1): 97.5%; inhibition at 2 µM ([2]; Plasmodium falciparum, 2µM, 24h preincubation with gametocytes, replicate R2, read-out: % inhibition male (individual replicates) R2): 95.7%; inhibition at 2 µM ([2]; Plasmodium falciparum, 2µM, 24h preincubation with gametocytes, replicate R3, read-out: % inhibition male (individual replicates) R3): 95.7%; inhibition at 2 µM ([2]; Plasmodium falciparum, 2µM, 24h preincubation with gametocytes, replicate R4, read-out: % inhibition male (individual replicates) R4): 100%; IC50 ([2]; Plasmodium falciparum, PfDGFA, 24 h incubation with gametocytes before induction, exflagellation readout, read-out: Male IC50): 1.72 µM
COc1cc2nc(N3CCC(CCCC4CCNCC4)CC3)nc(NCc3ccccn3)c2cc1OC.O=C(O)C(F)(F)F [TCMDC-138494] |  |  |  |  |  |  |  |  | 59.5% | 47.2% | 73.7% | 83.6% | 2 | 68.1% | 83.7% | 75.6% | 100.2% | 3 | 
COc1ccc(Cn2c(Nc3cccc(C(F)(F)F)c3)nc3ccc(C(=O)NCCN4CCCC4)cc32)cc1Cl [TCMDC-138531] | 9.2% | 9.3% | -11.0% | 18.4% | -2.0% | 6.1% | 3.4% | -8.5% |  |  |  |  |  |  |  |  |  |  | HitlevelF [1, 15]: 0; HitlevelM [2, 16]: 0; Activity [2, 17]: 0
c1ccc(Oc2ccc(Nc3ccnc(Nc4cccc(CNCCCN5CCOCC5)c4)n3)cc2)cc1 [TCMDC-138615] |  |  |  |  |  |  |  |  | 19.0% | 20.2% | 10.9% | 5.3% | 0 | 70.3% | 74.9% | 61.1% | 77.6% | 4 | 
COc1cc2nc(N3CCC(CNC(=O)c4ccc(-c5ccc(C(F)(F)F)cc5)cc4)CC3)nc(N)c2cc1OC [TCMDC-138716] |  |  |  |  |  |  |  |  | 47.4% | 32.4% | 31.5% | 42.3% | 1 | 66.2% | 83.5% | 34.3% | 64.2% | 3 | 
CC(=O)Nc1ccc(Nc2ncc([N+](=O)[O-])c(Nc3ccccc3C(N)=O)n2)cc1.Cl [TCMDC-138731] |  |  |  |  |  |  |  |  |  |  |  |  |  |  |  |  |  |  | % inhibition female (individual replicates) R1 [1, 18]: 2.0%; % inhibition female (individual replicates) R3 [1, 19]: 5.4%; % inhibition female (individual replicates) R4 [1, 20]: -11.2%; Average inhibition female (%) [1, 21]: -0.8%; % inhibition male (individual replicates) R1 [2, 18]: 16.1%; % inhibition male (individual replicates) R3 [2, 19]: -4.1%; % inhibition male (individual replicates) R4 [2, 20]: 46.2%; Average inhibition male (%) [2, 21]: 19.6%
O=C(NCCCCN1CCC(c2ccc3c(c2OCCN2CCCC2)CCCC3)CC1)c1ccc(-c2ccc(C(F)(F)F)cc2)cc1 [TCMDC-138768] | 9.4% | 18.9% | -7.9% | 3.3% | 31.7% | 23.4% | -6.7% | 63.6% |  |  |  |  |  |  |  |  |  |  | HitlevelF [1, 15]: 0; HitlevelM [2, 16]: 1; Activity [2, 17]: 0
Cc1[nH]c(C)c(-c2ccc(Oc3ccc(OC(F)(F)F)cc3)cc2)c(=O)c1Br [TCMDC-138826] | 14.3% | 12.8% | 15.5% | 15.2% | -11.2% | -5.2% |  | -18.5% |  |  |  |  |  |  |  |  |  |  | HitlevelF [1, 15]: 0; HitlevelM [2, 16]: 0; Activity [2, 17]: 0
O=C(NCC1CCN(CCN2CCC(c3cn(CCO)c4ccccc34)CC2)CC1)c1ccc(-c2ccc(C(F)(F)F)cc2)cc1 [TCMDC-138856] | 23.9% | 24.2% | 27.5% | 18.4% | 42.1% | 32.1% |  | 39.5% |  |  |  |  |  |  |  |  |  |  | HitlevelF [1, 7]: 0; HitlevelM [2, 8]: 1
CC1(C)CC(NCCCCCCCOc2ccc(OCc3ccccc3)cc2)CC(C)(C)N1.Cl [TCMDC-138958] |  |  |  |  |  |  |  |  | 23.9% | 22.5% | -1.0% | 34.0% | 0 | 66.7% | 71.0% | 36.7% | 78.9% | 3 | 
